# According to patent US10807958B2, “1,4-bis(3-aminopropyl)piperazine derivative and its use” (INSERM (Institut National de la Sante et de la Recherche …, priority 2015, dated 2020):
# Test system: Neuroblastoma SKNSH-SY5Y cells expressing the human Tau isoform 412
# Test: 1D gel electrophoresis / Western blot of Tau expression and phosphorylation in treated cells
# Format: cell-based
# Conditions: 10 μM, vs induced but non-treated condition, FIG. 1
# From the text: Pan-Tau and phospho-dependent Tau antibodies included Tau-Nter (M19G, 1/10 000, Sergeant et al., 1999), Tau-Cter (1/10 000, Sergeant et al., 1999, Le Freche et al., 2012), Tau-1 (1/5000, Merck Millipore), S199P (directed against the phospho-serine 199, 1/4000, Sergeant et al., 1999), Tau-Phospho S396 (directed against the phosphor-serine 396, 1/10000, Lifetechnologies), Tau-Phospho 404 (1/10 000, Lifetechnologies), 422 (clone 2H9, a homemade monoclonal antibody developed against a phospho-peptide containing the phosphorylated serine 422 residue of Tau, numbering according to the longest human brain Tau-441 isoform), AT8 (1/1000, Thermo Scientific), AT270 (1/2000, Thermo Scientific), AT100 (1/1000, Thermo Scientific). Neuron specific enolase (1/10 000), β-actin (1/5000) and β-tubulin (1/10 000) were from Sigma-Aldrich.
# Human neuroblastoma cell line SKNSH-SY5Y cells expressing the human Tau isoform 412 (with the exon 2 and 10 encoding sequences) (or SY5Y-Tau46) was as previously described in Bretteville et al., 2009.
# Neuroblastoma SKNSH-SY5Y cells expressing the human Tau isoform 412 (with the exon 2 and 10 encoding sequences) were treated with 10 μM of the hydrochloride salt of N-[3-(4-{3-[Bis(2-methylpropyl)amino]propyl}piperazin-1-yl)propyl]-1,2,3,4-tetrahydroacridin-9-amine (Example 6, hereinafter named “Compound I⋅HCl”) which was diluted in the culture medium as described in Bretteville et al., 2009.
# For the western-blot analysis of Tau proteins, SDS-PAGE was performed according to the manufacturer's instructions using Bis-Tris 4-12% gradient acrylamide gel (NuPage® Bis-Tris PreCast 12 wells, Life Technologies). The apparent molecular weights were calibrated using the molecular weight markers (Novex and Magic Marks, Life Technologies). Electrophoresis was performed under a continuous tension of 100V/per gel for 1 h. […]
# The effect of the compound of Formula I on Tau phosphorylation was analyzed in vitro and in vivo. […]
# Expression and total phosphorylation was assessed by 1D and 2D gel electrophoresis using phospho-dependent and pan-Tau antibodies (FIGS. 1 and 2). […]
smiles,measurement,setting,value
"CC(C)CN(CCCN1CCN(CCCNc2c3c(nc4ccccc24)CCCC3)CC1)CC(C)C [compound of Formula I, N-[3-(4-{3-[Bis(2-methylpropyl)amino]propyl}piperazin-1-yl)propyl]-1,2,3,4-tetrahydroacridin-9-amine]",Tau phosphorylation at serine 199,S199P antibody,reduced
same,Tau phosphorylation at serine 396,S396 antibody,reduced
same,Tau expression,pan-Tau antibodies,No significant change
